For assay [1], the system named is S6 Ribosomal Protein phosphorylation Ser235/236 in TSC1 null mouse embryo fibroblast (MEF) cells. The experiment in a line: Reverse protein array assay, S6 Ribosomal Protein phosphorylation Ser235/236 in TSC1 null MEF cells. The conditions noted are these: 1 h, pS6 ribosomal protein Ser235/236, 60 minutes incubation, read-out: p-S6 IC50. It is filed as cell-based. In outline: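 TSC1−/− MEFs, seeded and held ≥20 h at 37 °C/5% CO2, were exposed to 8-step serial compound dilutions (0.02% DMSO final; DMSO vehicle control) for 60 min at 37 °C. Cells were then lysed on ice for 10 min and lysates spotted onto reverse protein array chips.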

Another assay concerns the target T1, PI3K beta (Homo sapiens, UniProt P42338).
T1 construct: for the full-length p110-b subunit are generated and fused by overlapping PCR; p85(iSH2) fusion partner (see partner chain) (N); His tag (C); made in house; host or cells: baculovirus; Tn5 (Trichoplusia ni) or TiniPro insect cells
The experiment in a line: PI3K beta kinase assay (Kinase-Glo luminescence). It is filed as biochemical. In outline: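 p110β full-length/p85 iSH2 construct (BV-949), 25 nM, with 1 μM ATP and 10 μg/mL phosphatidylinositol in 10 mM Tris pH 7.5, 3 mM MgCl2, 50 mM NaCl, 0.05% CHAPS, 1 mM DTT. 60 min at room temperature; ATP remaining read by Kinase-Glo luminescence. IC50 from 8-point four-parameter logistic fit.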

Assay [2] relates to PKB Ser473 phosphorylation in Rat1-myr-HA-p110 delta cells. The assay can be described thus: Reverse protein array assay, PKB Ser473 phosphorylation in Rat1-myr-p110 delta cells. It is filed as cell-based. The conditions noted are these: read-out: p-PKB IC50. In outline:
(§1)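 Lysates were arrayed at four dilutions, and phospho-PKB Ser473 was quantified by relative fluorescence signal. They came from Rat1-myr-HA-p110 alpha, beta or delta cells exposed for 30 min at 37 °C to an 8-point compound series with 0.2% DMSO constant.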

The test system of assay [3] is PKB Ser473 phosphorylation in Rat1-myr-HA-p110 alpha cells. The assay can be described thus: Reverse protein array assay, PKB Ser473 phosphorylation in Rat1-myr-p110 alpha cells. The conditions noted are these: 0.5 h, pAkt Ser473, 30 minutes compound incubation, read-out: p-PKB IC50. It is filed as cell-based. Summed up:
as §1

T1 sequence (P42338 with tags, fused parts or gaps limits assumed): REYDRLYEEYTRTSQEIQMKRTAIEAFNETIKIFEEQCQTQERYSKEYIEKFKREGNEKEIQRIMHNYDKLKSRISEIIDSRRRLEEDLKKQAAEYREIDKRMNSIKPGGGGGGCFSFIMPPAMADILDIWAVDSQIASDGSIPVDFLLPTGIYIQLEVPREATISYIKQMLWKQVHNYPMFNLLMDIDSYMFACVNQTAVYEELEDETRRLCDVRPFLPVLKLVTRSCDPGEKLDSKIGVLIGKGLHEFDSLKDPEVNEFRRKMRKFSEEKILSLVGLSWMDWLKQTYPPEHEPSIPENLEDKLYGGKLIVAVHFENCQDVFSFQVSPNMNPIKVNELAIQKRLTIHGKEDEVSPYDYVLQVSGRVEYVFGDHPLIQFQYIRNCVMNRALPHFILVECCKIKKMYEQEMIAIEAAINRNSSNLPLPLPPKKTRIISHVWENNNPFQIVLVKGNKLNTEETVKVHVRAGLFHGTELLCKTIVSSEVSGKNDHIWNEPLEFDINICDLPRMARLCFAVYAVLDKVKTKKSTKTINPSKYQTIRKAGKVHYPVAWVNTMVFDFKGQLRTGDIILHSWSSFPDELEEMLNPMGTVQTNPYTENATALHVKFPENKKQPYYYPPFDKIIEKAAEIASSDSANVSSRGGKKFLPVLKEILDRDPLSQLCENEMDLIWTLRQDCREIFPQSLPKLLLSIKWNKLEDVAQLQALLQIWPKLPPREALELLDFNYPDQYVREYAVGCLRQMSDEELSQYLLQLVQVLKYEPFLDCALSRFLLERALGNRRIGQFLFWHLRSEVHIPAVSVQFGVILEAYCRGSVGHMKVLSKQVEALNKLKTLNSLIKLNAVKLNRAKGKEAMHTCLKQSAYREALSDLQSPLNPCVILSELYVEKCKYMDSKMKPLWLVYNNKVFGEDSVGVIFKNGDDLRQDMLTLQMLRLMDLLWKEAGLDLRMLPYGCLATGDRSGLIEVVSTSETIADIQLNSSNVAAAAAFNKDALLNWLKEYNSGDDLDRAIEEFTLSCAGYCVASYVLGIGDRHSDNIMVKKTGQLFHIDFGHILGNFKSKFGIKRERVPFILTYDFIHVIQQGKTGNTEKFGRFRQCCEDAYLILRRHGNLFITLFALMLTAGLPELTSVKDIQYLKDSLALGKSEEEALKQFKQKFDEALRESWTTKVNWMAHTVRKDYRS

Turning to `Cc1nn(C)cc1-n1c(=O)n(C)c2cnc3ccc(-c4ccc(N(C)C)nc4)cc3c21` [Example 4.5, 8-(6-Dimethylamino-pyridin-3-yl)-1-(1,3-dimethyl-1H-pyrazol-4-yl)-3-methyl-1,3-dihydro-imidazo[4,5-c]quinolin-2-one], the IC50 was 0.013 µM in assay [1], 0.213 µM on PI3K beta, 0.038 µM in assay [2] and 0.022 µM in assay [3].
For `Cc1nn(C)cc1-n1c(=O)n(C)c2cnc3ccc(-c4ccc(N5CCC5)nc4)cc3c21` [Example 5.1, 8-(6-Azetidin-1-yl-pyridin-3-yl)-1-(1,3-dimethyl-1H-pyrazol-4-yl)-3-methyl-1,3-dihydro-imidazo[4,5-c]quinolin-2-one] the same measures were 0.01 µM, 0.787 µM, 0.018 µM and 0.007 µM.
For the compound `Cc1nn(C)cc1-n1c(=O)n(C)c2cnc3ccc(-c4ccc(C(N)=O)nc4)cc3c21` [Example 14, 5-[1-(1,3-Dimethyl-1H-pyrazol-4-yl)-3-methyl-2-oxo-2,3-dihydro-1H-imidazo[4,5-c]quinolin-8-yl]-pyridine-2-carboxylic acid amide], the IC50 in assay [1] is 0.123 µM; on PI3K beta it was 0.13 µM; in assay [2], 0.074 µM; in assay [3], 0.026 µM.
Turning to `Cn1cc(-n2c(=O)n(C)c3cnc4ccc(-c5ccc(CO)nc5)cc4c32)c(Cl)n1` [Example 16.5, 1-(3-chloro-1-methyl-1H-pyrazol-4-yl)-8-(6-hydroxymethyl-pyridin-3-yl)-3-methyl-1,3-dihydro-imidazo[4,5-c]quinolin-2-one], the concentration for half-maximal inhibition (IC50) is 0.013 µM in assay [1], 0.028 µM on PI3K beta, 0.028 µM in assay [2] and 0.008 µM in assay [3].
`Cc1cncc(-c2ccc3ncc4c(c3c2)n(-c2cn(C)nc2C)c(=O)n4C)c1` [Example 24, 1-(1,3-Dimethyl-1H-pyrazol-4-yl)-3-methyl-8-(5-methyl-pyridin-3-yl)-1,3-dihydro-imidazo[4,5-c]quinolin-2-one]: the 50% inhibitory concentration (IC50) in assay [1] stood at 0.009 µM; on PI3K beta, 0.026 µM; in assay [2] it was 0.17 µM; in assay [3], 0.078 µM.
For `CCOc1ccc(-c2ccc3ncc4c(c3c2)n(-c2c(C)nn(C)c2C)c(=O)n4C)cc1OCC` [Example 27.2, 8-(3,4-Diethoxy-phenyl)-3-methyl-1-(1,3,5-trimethyl-1H-pyrazol-4-yl)-1,3-dihydro-imidazo[4,5-c]quinolin-2-one] the same measures were 0.234 µM, 0.173 µM, 0.508 µM and 0.014 µM.
Regarding `CCOc1ccc(-c2ccc3ncc4c(c3c2)n(-c2cn(CC)nc2C)c(=O)n4C)cc1OC` [Example 29.1, 8-(4-Ethoxy-3-methoxy-phenyl)-1-(1-ethyl-3-methyl-1H-pyrazol-4-yl)-3-methyl-1,3-dihydro-imidazo[4,5-c]quinolin-2-one], the IC50 in assay [1] was found to be 0.009 µM; on PI3K beta it was 0.057 µM; in assay [2], 0.059 µM; in assay [3] it was 0.005 µM.
With `Cc1nn(C)cc1-n1c(=O)n(C)c2cnc3ccc(-c4cnc5ccccc5c4)cc3c21` [Example 38, 1-(1,3-Dimethyl-1H-pyrazol-4-yl)-3-methyl-8-quinolin-3-yl-1,3-dihydro-imidazo[4,5-c]quinolin-2-one], the IC50 in assay [1] amounted to 0.003 µM; at PI3K beta, 0.04 µM; in assay [2], 0.019 µM; in assay [3], 0.007 µM.
Taken in the same sequence, the figures for `Cc1nn(C)cc1-n1c(=O)n(C)c2cnc3ccc(-c4cccc(S(=O)(=O)N5CCCC5)c4)cc3c21` [Example 44, 1-(1,3-Dimethyl-1H-pyrazol-4-yl)-3-methyl-8-[3-(pyrrolidine-1-sulfonyl)-phenyl]-1,3-dihydro-imidazo[4,5-c]quinolin-2-one] were 0.08 µM, 0.218 µM, 0.134 µM and 0.041 µM.
In the case of `CCn1cc(-n2c(=O)n(C)c3cnc4ccc(-c5cncc(N)c5)cc4c32)c(C)n1` [Example 45.2, 8-(5-Amino-pyridin-3-yl)-1-(1-ethyl-3-methyl-1H-pyrazol-4-yl)-3-methyl-1,3-dihydro-imidazo[4,5-c]quinolin-2-one], the IC50 in assay [1] came out at 0.072 µM; on PI3K beta it was 0.029 µM; in assay [2] it was 0.203 µM; in assay [3], 0.026 µM.
Regarding `Cc1nn(C(C)C)cc1-n1c(=O)n(C)c2cnc3ccc(-c4cncc(N)c4)cc3c21` [Example 45.3, 8-(5-Amino-pyridin-3-yl)-1-(1-isopropyl-3-methyl-1H-pyrazol-4-yl)-3-methyl-1,3-dihydro-imidazo[4,5-c]quinolin-2-one], the half-maximal inhibitory concentration (IC50) is 0.046 µM in assay [1], 0.169 µM at PI3K beta, 0.213 µM in assay [2] and 0.014 µM in assay [3].
For `CCOc1cncc(-c2ccc3ncc4c(c3c2)n(-c2cn(CC(=O)N(C)C)nc2C)c(=O)n4C)c1` [Example 56.2, 2-{4-[8-(5-Ethoxy-pyridin-3-yl)-3-methyl-2-oxo-2,3-dihydro-imidazo[4,5-c]quinolin-1-yl]-3-methyl-pyrazol-1-yl}-N,N-dimethyl-acetamide], the IC50 in assay [1] was determined as 0.01 µM; on PI3K beta it was 0.317 µM; in assay [2], 0.468 µM; in assay [3], 0.303 µM.
In the case of `Cc1cnn(C)c1-n1c(=O)n(C)c2cnc3ccc(-c4cncc(OC(C)C)c4)cc3c21` [Example 58.3, 1-(2,4-Dimethyl-2H-pyrazol-3-yl)-8-(5-isopropoxy-pyridin-3-yl)-3-methyl-1,3-dihydro-imidazo[4,5-c]quinolin-2-one], the IC50 turned out to be 0.174 µM in assay [1], 0.203 µM on PI3K beta, 0.577 µM in assay [2] and 0.383 µM in assay [3].
On to `COCCOc1cncc(-c2ccc3ncc4c(c3c2)n(-c2cn(C)nc2Cl)c(=O)n4C)c1` [Example 59.2, 1-(3-Chloro-1-methyl-1H-pyrazol-4-yl)-8-[5-(2-methoxy-ethoxy)-pyridin-3-yl]-3-methyl-1,3-dihydro-imidazo[4,5-c]quinolin-2-one], for which the half-maximal inhibitory concentration (IC50) was determined as 0.001 µM in assay [1], 0.019 µM on PI3K beta, 0.069 µM in assay [2] and 0.012 µM in assay [3].
Taken in the same sequence, the figures for `CCOc1ncc(-c2ccc3ncc4c(c3c2)n(-c2cn(C)nc2C)c(=O)n4C)cc1N(C)C(C)=O` [Example 63, N-{5-[1-(1,3-Dimethyl-1H-pyrazol-4-yl)-3-methyl-2-oxo-2,3-dihydro-1H-imidazo[4,5-c]quinolin-8-yl]-2-ethoxy-pyridin-3-yl}-N-methyl-acetamide] were 0.0134 µM, 0.11 µM, 0.356 µM and 0.265 µM.
For the compound `Cc1ncc(-c2ccc3ncc4c(c3c2)n(-c2cn(C)nc2C)c(=O)n4C)cc1NS(C)(=O)=O` [Example 76, N-{5-[1-(1,3-Dimethyl-1H-pyrazol-4-yl)-3-methyl-2-oxo-2,3-dihydro-1H-imidazo[4,5-c]quinolin-8-yl]-2-methyl-pyridin-3-yl}-methanesulfonamide], the IC50 in assay [1] came to 0.2 µM; on PI3K beta, 0.01 µM; in assay [2] it was 0.39 µM; in assay [3], 0.18 µM.

For orientation: IC50 means the concentration needed to halve the response being measured.

Values taken from patent US20140005163A1 (NOVARTIS AG, priority 2010, published 2014).
